Assay [1] concerns PTH secretion. Briefly: Evaluation of PTH secretion promoting activity in a rat (blood serum PTH after oral administration). The format is in vivo. The note with it: female F344 rat, oral 3 mg/5 mL/kg, Mean ± S.D., n = 3. The method, then: Evaluation of PTH Secretion Promoting Activity in a Rat
A 10 to 14-week old female F344 rat (Charles River Japan, Inc.) fasted overnight was anesthetized using ether, and blood serum before the administration was prepared by drawing blood from the jugular vein of the animal. Subsequently, the test compound was orally administered at a dose of 3 mg/5 mL/kg using a solvent (0.5% aqueous methyl cellulose solution containing 5% DMA). Blood was drawn from the jugular vein under ether anesthesia at 5, 15, 30, 60, 120, and 240 minutes after the administration of the test compound, and the blood serum was prepared. The blood serum PTH concentration was measured using rat Intact PTH ELISA kit (manufactured by Immutopics, Inc.).

The target in assay [2] is T1, human calcium-sensing receptor (CaSR) (Homo sapiens, UniProt P41180).
T1 construct: expressed in transfected cells
T1 sequence (P41180 20-1078): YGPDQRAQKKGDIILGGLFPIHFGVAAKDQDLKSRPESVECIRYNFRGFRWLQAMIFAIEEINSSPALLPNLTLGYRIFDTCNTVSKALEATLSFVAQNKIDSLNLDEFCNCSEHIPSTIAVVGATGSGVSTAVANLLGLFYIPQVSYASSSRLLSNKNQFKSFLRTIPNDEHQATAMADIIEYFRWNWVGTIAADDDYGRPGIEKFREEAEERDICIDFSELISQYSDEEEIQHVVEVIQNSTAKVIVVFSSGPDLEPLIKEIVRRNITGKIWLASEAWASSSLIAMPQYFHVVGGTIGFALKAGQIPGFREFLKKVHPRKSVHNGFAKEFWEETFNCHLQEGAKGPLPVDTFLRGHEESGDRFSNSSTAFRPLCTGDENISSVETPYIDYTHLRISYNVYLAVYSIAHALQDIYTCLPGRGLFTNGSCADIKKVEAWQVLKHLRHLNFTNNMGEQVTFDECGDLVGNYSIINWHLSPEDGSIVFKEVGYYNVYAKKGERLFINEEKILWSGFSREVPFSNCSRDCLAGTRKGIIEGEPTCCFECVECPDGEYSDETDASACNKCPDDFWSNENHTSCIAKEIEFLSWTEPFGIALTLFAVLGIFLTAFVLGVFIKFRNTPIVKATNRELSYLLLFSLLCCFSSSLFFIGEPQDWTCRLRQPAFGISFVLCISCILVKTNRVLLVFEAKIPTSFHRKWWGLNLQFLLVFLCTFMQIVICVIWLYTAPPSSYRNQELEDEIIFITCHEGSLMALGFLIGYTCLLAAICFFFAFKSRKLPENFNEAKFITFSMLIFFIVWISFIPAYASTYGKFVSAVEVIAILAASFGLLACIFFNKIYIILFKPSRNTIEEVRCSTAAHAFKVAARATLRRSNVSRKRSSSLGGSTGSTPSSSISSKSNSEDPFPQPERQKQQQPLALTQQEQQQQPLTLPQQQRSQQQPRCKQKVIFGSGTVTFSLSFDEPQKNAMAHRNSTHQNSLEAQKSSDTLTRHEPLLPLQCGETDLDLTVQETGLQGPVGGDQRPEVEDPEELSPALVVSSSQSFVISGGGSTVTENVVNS
Briefly: Inhibitory activity on calcium-sensing receptor (CaSR), intracellular calcium increase as indicator (FLIPR, CHO/hCaSR). The format is cell-based. Particulars: CHO cells stably expressing human CaSR; inhibition of intracellular Ca increase induced by extracellular CaCl2. In outline:
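CHO/hCaSR cells loaded with Calcium 3 dye in HEPES/HBSS (Ca/Mg-free, 2.5 mM probenecid, pH 7.4), then preincubated 15 min with compound (final 1.05–10,000 nM). Challenged with CaCl2 ([…]) and fluorescence followed by FLIPR. IC50 derived from the peak-minus-baseline fluorescence increase.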
In general terms: Calcium assays in cells follow changes in intracellular calcium, usually with a dye or a luminescent sensor.

Some results are limits rather than exact numbers.

In the case of `Cc1ccc(C[C@@H]2CCCN2C[C@@H](O)CO[C@H](C)c2cccc(C(F)(F)F)c2CCC(=O)O)cc1F` [Example 9, 3-{2-[(1R)-1-({(2R)-3-[(2S)-2-(3-Fluoro-4-methylbenzyl)pyrrolidin-1-yl]-2-hydroxypropyl}oxy)ethyl]-6-(trifluoromethyl)phenyl}propanoic acid], in assay [1], the “Blood Serum PTH (1-84) Concentration, 0 minute” value is listed as 87.9 ± 25.5 pg/mL; the “Blood Serum PTH (1-84) Concentration, After 5 minutes” value came out at 117.2 ± 32.4 pg/mL; the “Blood Serum PTH (1-84) Concentration, After 15 minutes” value is on record as 476.5 ± 99.7 pg/mL; the “Blood Serum PTH (1-84) Concentration, After 30 minutes” value is on record as 235.6 ± 99.1 pg/mL. In assay [1], the “Blood Serum PTH (1-84) Concentration, After 60 minutes” value amounted to 49.1 ± 16.9 pg/mL; the “Blood Serum PTH (1-84) Concentration, After 120 minutes” value was found to be 33.6 ± 5.1 pg/mL; the “Blood Serum PTH (1-84) Concentration, After 240 minutes” value was 117.2 ± 27.7 pg/mL. Further, in assay [2], the IC50 (as a rule, the concentration that inhibits the measured activity by half) is at most 3.13 µM. Consider `Cc1ccc(C[C@@H]2CCN2C[C@@H](O)CO[C@H](C)c2ccccc2CCC(=O)O)cc1F` [Example 14, 3-{2-[(1R)-1-({(2R)-3-[(2R)-2-(3-Fluoro-4-methylbenzyl)azetidin-1-yl]-2-hydroxypropyl}oxy)ethyl]phenyl}propanoic acid], for which, in assay [1], the “Blood Serum PTH (1-84) Concentration, 0 minute” value was 53.3 ± 4.4 pg/mL; the “Blood Serum PTH (1-84) Concentration, After 5 minutes” value is 195.9 ± 16.9 pg/mL; the “Blood Serum PTH (1-84) Concentration, After 15 minutes” value is 429.0 ± 111.0 pg/mL; the “Blood Serum PTH (1-84) Concentration, After 30 minutes” value stood at 198.2 ± 61.0 pg/mL. In addition, in assay [1], the “Blood Serum PTH (1-84) Concentration, After 60 minutes” value is 41.8 ± 5.8 pg/mL; the “Blood Serum PTH (1-84) Concentration, After 120 minutes” value is reported as 42.0 ± 8.5 pg/mL; the “Blood Serum PTH (1-84) Concentration, After 240 minutes” value came out at 64.2 ± 6.3 pg/mL. The IC50 in assay [2] is at most 3.72 µM.

As to `Cc1ccc(C[C@@H]2CCCN2C[C@@H](O)COC(C)c2c(C)cccc2CCC(=O)O)cc1F` (stereo partly drawn) [Example 32], in assay [2], the IC50 was at most 3.5 µM.

`Cc1ccc(C[C@@H]2C[C@@H](O)CN2C[C@@H](O)CO[C@H](C)c2ccccc2CCC(=O)O)cc1F` [Example 49]: in assay [2], the IC50 is at most 3.48 µM. Same read-out and setting: the value for `Cc1ccc(C[C@@H]2CCCN2C[C@@H](O)CO[C@H](C)c2cc(F)c(F)cc2CCCCC(=O)O)cc1F` [Example 30] was at most 3.15 µM; that for `Cc1ccc(C[C@@H]2CCCN2C[C@@H](O)CO[C@H](C)c2cc(F)c(Cl)cc2CCC(=O)O)cc1F` [Example 156] was at most 3.23 µM; that for `Cc1ccc([C@@H](C)OC[C@H](O)CN2CCC[C@H]2Cc2ccc(C)c(F)c2)c(CCC(=O)O)c1` [Example 4, 3-{2-[(1R)-1-({(2R)-3-[(2S)-2-(3-Fluoro-4-methylbenzyl)pyrrolidin-1-yl]-2-hydroxypropyl}oxy)ethyl]-5-methylphenyl}propanoic acid] was at most 3.5 µM. Same read-out and setting: the figure for `CCc1cc(C[C@@H]2CCCN2C[C@@H](O)CO[C@H](C)c2ccc(C)cc2CCC(=O)O)ccc1Cl` [Example 98] is at most 3.28 µM; for `COc1cccc([C@@H](C)OC[C@H](O)CN2CCC[C@H]2Cc2ccc(C)c(F)c2)c1CCC(=O)O` [Example 18] it is at most 3.38 µM; for `CCC[C@@H](OC[C@H](O)CN1CCC[C@H]1Cc1ccc(C)c(F)c1)c1cc(F)ccc1CCC(=O)O` [Example 61] it is at most 3.27 µM. For `Cc1ccc(C[C@@H]2CCCN2C[C@@H](O)CO[C@H](C)c2cccc(C)c2CCC(=O)O)cc1Cl` [Example 169], the IC50 in assay [2] is at most 3.38 µM.

Take `CC[C@@H](OC[C@H](O)CN1CCC[C@H]1Cc1ccc(Cl)c(F)c1)c1cccc(OC)c1CCC(=O)O` [Example 173]: in assay [2], the IC50 is at most 3.15 µM.

In the case of `CC[C@@H](OC[C@H](O)CN1CCC[C@H]1Cc1ccc(Cl)c(F)c1)c1cc(F)ccc1CCC(=O)O` [Example 135], in assay [2], the IC50 is at most 3.23 µM.

As to `Cc1ccc(C[C@@H]2CCCN2C[C@@H](O)CO[C@H](C)c2ccccc2CCc2nn[nH]n2)cc1F` [Example 178, (2R)-1-[(2S)-2-(3-Fluoro-4-methylbenzyl)pyrrolidin-1-yl]-3-[(1R)-1-{2-[2-(2H-tetrazol-5-yl)ethyl]phenyl}ethoxy]propan-2-ol], the IC50 in assay [2] is at most 3.12 µM. The same measure, in the same setting: the figure for `Cc1cc(CCC(=O)O)c([C@@H](C)OC[C@H](O)CN2CCC[C@H]2Cc2ccc(Cl)c(Cl)c2)cc1F` [Example 175] is at most 3.12 µM.

As for `CCc1cc(C[C@@H]2CCCN2C[C@@H](O)CO[C@H](C)c2cccc(Cl)c2CCC(=O)O)ccc1Cl` [Example 152], the IC50 in assay [2] is at most 3.15 µM. Same read-out and setting: the value for `Cc1ccc(C[C@@H]2CCCN2C[C@@H](O)CO[C@H](C)c2cc(F)ccc2CCC(=O)O)cc1Cl` [Example 166] was at most 3.35 µM; that for `C[C@@H](OC[C@H](O)CN1CCC[C@H]1Cc1ccc(Cl)c(Cl)c1)c1cc(F)c(F)cc1CCC(=O)O` [Example 177] was at most 3.1 µM.

As to `CCC[C@@H](OC[C@H](O)CN1CCC[C@H]1Cc1ccc(C)c(F)c1)c1ccccc1CCC(=O)O` [Example 21], in assay [2], the IC50 is at most 3.39 µM.

(Values after patent US8173631B2, “Cyclic amine compounds” (Daiichi Sankyo Company, Limited, priority 2008, dated 2012).)
